Measured values published in ChEMBL document CHEMBL2321731, “Structure-Based Design of Irreversible Human KAT II Inhibitors: Discovery of New Potency-Enhancing Interactions” (ACS Med Chem Lett, 2013).
Activity calls are given as the source filed them. No cut-off for these calls is given here.

Assays:
[1] = biological target: Kynurenine/alpha-aminoadipate aminotransferase, mitochondrial (Rattus norvegicus) (UniProt Q64602); assay: Ratio of Kinact to Ki for rat KAT2 using L-kynurenine as substrate by SpectraMax plate reader analysis
[2] = system: Kynurenine/alpha-aminoadipate aminotransferase, mitochondrial (Homo sapiens), Q8N5Z0 [K240S,F241G]; assay: Binding affinity to C-terminal hexa histidine tagged full length human KAT2 K240S/F241G mutant harboring C-terminal thrombin cleavage site at 1 mM after 2 hrs by X-ray crystallography in presence of 2 mM PLP
Brain [3] = assay: Ratio of hydroxamate fAUC to compound fAUC in Sprague-Dawley rat brain at 10 mg/kg, sc by equilibrium dialysis method; type: ADME, organism-based; design: dose 10 mg/kg, route subcutaneous; conditions: in vivo
Rattus norvegicus = assay: Decrease in extracellular KYNA level in Sprague-Dawley rat prefrontal cortex at 10 mg/kg, sc measured for 4 hrs by microdialysis method; type: functional, organism-based; design: dose 10 mg/kg
[4] = biological target: T1, Kynurenine/alpha-aminoadipate aminotransferase, mitochondrial (Homo sapiens, UniProt Q8N5Z0); assay: Ratio of Kinact to Ki for human KAT2 using L-kynurenine as substrate by SpectraMax plate reader analysis
Target sequence in this assay (Q8N5Z0 30-425 limits assumed): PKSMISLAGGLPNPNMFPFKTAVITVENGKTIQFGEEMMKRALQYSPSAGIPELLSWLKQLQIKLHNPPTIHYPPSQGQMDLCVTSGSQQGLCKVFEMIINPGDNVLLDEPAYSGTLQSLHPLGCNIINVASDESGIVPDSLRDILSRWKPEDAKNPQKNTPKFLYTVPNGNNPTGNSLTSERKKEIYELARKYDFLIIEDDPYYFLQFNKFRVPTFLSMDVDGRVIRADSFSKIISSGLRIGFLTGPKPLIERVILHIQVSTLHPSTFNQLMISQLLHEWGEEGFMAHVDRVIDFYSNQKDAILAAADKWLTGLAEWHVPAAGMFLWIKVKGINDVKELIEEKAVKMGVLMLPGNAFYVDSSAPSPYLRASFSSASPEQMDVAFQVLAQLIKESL

[5] = biological target: T1, Kynurenine/alpha-aminoadipate aminotransferase, mitochondrial; assay: Irreversible inhibition of human KAT2 using L-kynurenine as substrate measured every 5 mins over 16 hrs by SpectraMax plate reader analysis
Brain [6] = assay: fAUC in Sprague-Dawley rat brain at 10 mg/kg, sc by equilibrium dialysis method; type: ADME, organism-based; design: dose 10 mg/kg, route subcutaneous; conditions: in vivo
[7] = biological target: T2, Kynurenine--oxoglutarate transaminase 1 (Homo sapiens, UniProt Q16773); assay: Inhibition of human KAT1 using L-kynurenine as substrate measured after 16 hrs by SpectraMax plate reader analysis
T2 sequence (Q16773 whole entry): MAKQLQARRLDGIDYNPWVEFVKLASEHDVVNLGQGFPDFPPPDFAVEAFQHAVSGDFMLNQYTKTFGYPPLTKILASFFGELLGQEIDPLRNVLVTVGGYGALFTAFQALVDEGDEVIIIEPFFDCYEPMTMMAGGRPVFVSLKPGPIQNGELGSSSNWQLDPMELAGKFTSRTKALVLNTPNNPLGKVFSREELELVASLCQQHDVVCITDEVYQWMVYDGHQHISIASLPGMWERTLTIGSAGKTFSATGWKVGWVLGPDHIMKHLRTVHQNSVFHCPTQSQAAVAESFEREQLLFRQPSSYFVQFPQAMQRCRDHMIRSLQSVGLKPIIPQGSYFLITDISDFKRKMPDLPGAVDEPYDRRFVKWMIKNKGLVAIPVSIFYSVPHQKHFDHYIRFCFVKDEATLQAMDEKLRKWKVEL

[8] = biological target: T1, Kynurenine/alpha-aminoadipate aminotransferase, mitochondrial; assay: Inhibition of human KAT2 using L-kynurenine as substrate measured after 15-20 hrs by SpectraMax plate reader analysis
Target sequence in this assay (Q8N5Z0 whole entry): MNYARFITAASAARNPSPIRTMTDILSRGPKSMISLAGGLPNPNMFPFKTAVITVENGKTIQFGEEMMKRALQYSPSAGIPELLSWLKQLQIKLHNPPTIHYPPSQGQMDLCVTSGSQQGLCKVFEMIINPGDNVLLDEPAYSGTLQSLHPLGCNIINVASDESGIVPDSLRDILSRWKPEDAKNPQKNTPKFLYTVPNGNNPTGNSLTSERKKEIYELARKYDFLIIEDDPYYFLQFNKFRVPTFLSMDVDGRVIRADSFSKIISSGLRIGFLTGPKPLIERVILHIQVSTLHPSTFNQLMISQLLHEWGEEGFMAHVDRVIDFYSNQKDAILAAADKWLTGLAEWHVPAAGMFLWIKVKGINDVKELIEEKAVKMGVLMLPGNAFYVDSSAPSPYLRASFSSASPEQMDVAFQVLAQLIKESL

[9] = Unbound fraction in Sprague-Dawley rat brain at 10 mg/kg, sc by equilibrium dialysis method; type: ADME, organism-based; design: dose 10 mg/kg, route subcutaneous
Brain [10] = assay: AUC in Sprague-Dawley rat brain at 10 mg/kg, sc by LC-MS/MS analysis; type: ADME, organism-based; design: dose 10 mg/kg, route subcutaneous; conditions: in vivo
[11] = biological target: Kynurenine--oxoglutarate transaminase 3 (Homo sapiens, UniProt Q6YP21); assay: Inhibition of human KAT3 using L-kynurenine as substrate measured after 24 hrs by SpectraMax plate reader analysis
Chain of Kynurenine--oxoglutarate transaminase 3 (Q6YP21 whole entry): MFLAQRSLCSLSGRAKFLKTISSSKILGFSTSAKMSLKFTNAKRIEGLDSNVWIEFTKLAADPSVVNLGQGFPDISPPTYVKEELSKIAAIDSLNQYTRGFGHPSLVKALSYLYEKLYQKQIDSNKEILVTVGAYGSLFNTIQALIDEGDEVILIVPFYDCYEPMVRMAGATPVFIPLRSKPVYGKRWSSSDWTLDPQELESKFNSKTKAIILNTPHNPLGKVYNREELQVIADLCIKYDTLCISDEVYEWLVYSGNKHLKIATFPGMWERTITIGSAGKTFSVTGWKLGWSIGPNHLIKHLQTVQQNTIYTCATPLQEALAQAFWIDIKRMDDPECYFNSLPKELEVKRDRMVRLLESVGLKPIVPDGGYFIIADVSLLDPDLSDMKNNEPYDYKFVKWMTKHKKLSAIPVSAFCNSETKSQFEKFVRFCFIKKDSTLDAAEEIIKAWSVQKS

Chain of Kynurenine/alpha-aminoadipate aminotransferase, mitochondrial (Rattus norvegicus) (Q64602 30-425 limits assumed): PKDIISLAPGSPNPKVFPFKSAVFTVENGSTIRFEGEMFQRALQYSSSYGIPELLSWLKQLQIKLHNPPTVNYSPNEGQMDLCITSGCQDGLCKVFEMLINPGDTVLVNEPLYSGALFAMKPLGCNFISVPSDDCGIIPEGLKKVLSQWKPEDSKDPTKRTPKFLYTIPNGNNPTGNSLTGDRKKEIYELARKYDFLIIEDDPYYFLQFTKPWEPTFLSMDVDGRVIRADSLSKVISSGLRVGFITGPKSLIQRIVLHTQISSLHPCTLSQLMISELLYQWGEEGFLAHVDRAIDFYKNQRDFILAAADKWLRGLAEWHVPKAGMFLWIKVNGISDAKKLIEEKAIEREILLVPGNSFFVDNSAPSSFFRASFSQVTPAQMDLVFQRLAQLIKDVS
Chain of Kynurenine/alpha-aminoadipate aminotransferase, mitochondrial (Homo sapiens), Q8N5Z0 [K240S,F241G] (Q8N5Z0 whole entry K240S/F241G): as the sequence (Q8N5Z0 whole entry) above, with K240S, F241G counted along it

In the case of `N[C@H]1Cc2cc(Oc3ccccc3)ccc2N(O)C1=O`, the Ratio [1] is reported as 9070, the Activity [2] is reported as “Active” and the Ratio (Brain [3]) is reported as 9. The inhibition (Rattus norvegicus) was “Active”, the Ratio [4] was 26800 and the Ki [5] was 7.1 nM. For the same molecule, the Kinact [5] was 0.0108 min⁻¹, the fAUC (Brain [6]) was 65 ng·h/g and the IC50 [7] was 2040 nM. It also gave an IC50 [8] of 23 nM, a fraction unbound [9] of 0.0099 and an AUC (Brain [10]) of 6602 ng·h/g. For the same molecule, the IC50 [11] was 1230 nM.

With `N[C@H]1Cc2ccccc2N(O)C1=O` the Ratio [1] was 573, the Activity [2] was “Active” and the inhibition (Rattus norvegicus) was “Active”. It also gave a Ratio [4] of 18500, a Ki [5] of 14.2 nM and a Kinact [5] of 0.0156 min⁻¹. The fAUC (Brain [6]) was 584 ng·h/g, the IC50 [7] was 30400 nM and the fraction unbound [9] was 0.393. It also gave an AUC (Brain [10]) of 1486 ng·h/g and an IC50 [11] of 9040 nM.

In the case of `COc1ccc2c(c1)N(O)C(=O)[C@@H](N)C2`, the Ratio [1] is reported as 1840, the Activity [2] is reported as “Active” and the Ratio [4] is reported as 31700. For the same molecule, the Ki [5] was 7.7 nM, the Kinact [5] was 0.0137 min⁻¹ and the IC50 [7] was 15300 nM. For the same molecule, the IC50 [11] was 6400 nM.
